Tests used:
[1] = tested on: Vero cells; assay: CytoTox-Glo cellular lysis assay in Vero cells; assay type: cell-based; conditions: 24 h; read-out: Vero cell toxicity CTG CC50
Procedure: Quantitative toxicity measurements were conducted for all compounds that suppressed HSV replication by approximately 2 login or more at 5 μM plus a number of compounds with lesser inhibitory activity for comparison. Toxicity was assessed by measuring release of intracellular proteases into the culture medium due to cellular lysis. […] Consistent with the subjective assessments of toxicity, all compounds selected for quantitative toxicity assessment had CC50 values ≥50 μM by both the MTT and cellular lysis assays (Table 1).

[2] = tested on: Vero cells; assay: MTT mitochondrial toxicity assay in Vero cells; assay type: cell-based; conditions: 24 h; read-out: Vero cell toxicity MTT CC50
[3] = target: T1, HBV RNaseH (Hepatitis B virus genotype A2 subtype adw2, UniProt P03159); assay: Biochemical inhibition of HBV RNaseH (oligonucleotide-directed RNA cleavage assay); conditions: compounds at 60, 20 or 10 μM
T1 construct: One of the inventors recently produced active recombinant HBV RNase H; hexahistidine; made in house; host or cells: E. coli
In short: (§1)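 A DNA oligonucleotide was annealed to internally ^32P-labeled RNA, and the heteroduplex was incubated with enzyme alongside compounds at 60, 20 or 10 μM. Cleavage products were resolved by electrophoresis and detected by autoradiography, then quantified against DMSO vehicle reactions.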

[4] = tested on: HSV-2; assay: Anti-HSV-2 replication assay in Vero cells, titer by plaque assay; assay type: cell-based, herpes simplex virus 2; conditions: for Anti-HSV-2 Log10 suppression 5 μM / Anti-HSV-2 Log10 suppression 50 μM: moi 0.1, 24 h, relative to DMSO
In short: (§2)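 Well lysates titered by plaque assay on Vero cells versus DMSO controls; EC50 by non-linear fit from serial dilutions starting at 50 μM.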

[5] = tested on: Vero cells; assay: Qualitative (visual) cytotoxicity assessment in primary screening; assay type: cell-based; conditions: visual, 50 μM
Procedure: Compound Cytotoxicity. Compound cytotoxicity was measured both subjectively and quantitatively. Subjective assessments were done by visually inspecting the infected cells at the end of the 24 hours infection window through a phase-contrast microscope.

[6] = tested on: HSV-1; assay: Anti-HSV-1 replication assay in Vero cells, titer by plaque assay; assay type: cell-based, herpes simplex virus 1; conditions: for Anti-HSV-1 Log10 suppression 5 μM / Anti-HSV-1 Log10 suppression 50 μM: moi 0.1, 24 h, relative to DMSO
In short: as §2

[7] = target: T2, human RNaseH1 (Homo sapiens, UniProt O60930); assay: Biochemical inhibition of human RNaseH1 (oligonucleotide-directed RNA cleavage assay); conditions: compounds at 60, 20 or 10 μM
T2 construct: hexahistidine; made in house; host or cells: E. coli
T2 sequence (O60930 1-286): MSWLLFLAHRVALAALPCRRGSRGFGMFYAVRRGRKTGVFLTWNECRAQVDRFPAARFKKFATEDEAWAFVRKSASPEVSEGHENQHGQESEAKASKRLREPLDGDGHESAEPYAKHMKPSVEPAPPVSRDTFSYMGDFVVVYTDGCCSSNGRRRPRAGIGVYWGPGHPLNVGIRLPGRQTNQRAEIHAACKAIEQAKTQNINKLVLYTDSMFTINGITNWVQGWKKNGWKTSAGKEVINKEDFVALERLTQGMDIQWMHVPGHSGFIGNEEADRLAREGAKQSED
In short: as §1

[8] = tested on: HSV-1; assay: Topical treatment of mice infected with HSV-1 on the cornea; assay type: in vivo; conditions: summary statement
Procedure: Compounds were administered at 1 μg/eye in 10% DMSO. Two mice were treated with 10% DMSO as a negative control. The corneal surface was swabbed once per day on days 1, 2, 4 and 5 post-infection and titer of virus shed from the epithelium was determined by standard plaque assay. On the fifth day post-infection mice were euthanized and the trigeminal ganglia (TG) and brainstems were dissected. The tissues were disrupted and virus in them quantified by plaque assay. […] Weight of individual mice was recorded daily. […] Saline was a negative control. On the fifth day post-infection mice were euthanized and the trigeminal ganglia (TG) and brainstems were dissected. The tissues were disrupted and virus in them quantified by plaque assay.
Body weight was monitored daily post-infection as a sensitive indicator of overall health (FIG. 12).
Infected mice treated with saline served as a negative control.

[9] = Single dose pharmacokinetic study after peroral ciclopirox olamine; assay type: in vivo, BALB/c mice; conditions: 100 mg/kg oral gavage
Procedure: Single dose pharmacokinetic study after peroral treatment with ciclopirox Olamine. Six week old BALB/c mice were treated with 100 mg/kg ciclopirox olamine by oral gavage. This is well below the oral toxicity level in mice of 1740 mg/kg (Spectrum Chemicals MSDS). At 15 min, 30 min, 1 h, 3 h and 5 h post-treatment, blood was collected from pairs of mice and the serum separated. Mice were then euthanized and trigeminal ganglia (TG), brainstems and corneas were dissected and frozen until tissue extraction was performed and the extracts analyzed by mass spectroscopy. Standardization to ciclopirox olamine was achieved using compound spiked into a matrix of relevant tissue homogenate from untreated mice.
Ciclopirox olamine tissue concentrations (μM) after oral gavage. Ciclopirox olamine has previously been used to treat mice by oral gavage (25 to 40 mg/kg) for up to 60 days, but, assessment of penetration into the cornea and nervous system after oral gavage needed to be evaluated as well as tissue concentration over time to estimate appropriate dosing. In a single dose pharmacokinetic study, mice were treated with 100 mg/kg ciclopirox olamine by oral gavage. Pairs of mice were euthanized at various times post-treatment. Ciclopirox olamine concentrations in plasma, corneas, trigeminal ganglia and brainstems were determined by mass spectroscopy (FIG. 10). […] Ciclopirox olamine concentrations in cornea and nervous system tissues were only ˜5-fold lower than that in the plasma and remained above the estimated EC90 until 5 hours post-treatment.

[10] = mouse, in vivo; cited from earlier work
[11] = tested on: HSV-1; assay: HSV-1 replication inhibition in primary human foreskin fibroblasts; assay type: cell-based, herpes simplex virus 1; conditions: HFF cells, relative to DMSO-treated control
Procedure: (§3) Anti-HSV-1 and -HSV-2 Replication Assay. Compounds to be screened were diluted in PBS supplemented to contain 2% newborn calf serum and 1% glutamine, and added in 100 μL, volume to confluent cell monolayers in 24-well cluster plates. Immediately thereafter HSV-1 and HSV-2, diluted in the supplemented PBS medium, were added to the wells in 50 μl volume such that the final concentration of compound was 50 μM and 5 μM and the multiplicity of infection was 0.1. The plates were incubated at 37° C. for 1 hour and then virus-containing inoculum was removed and the wells were washed once in PBS. Compounds, diluted to 50 μM and 5 μM in DMEM supplemented to contain 2% newborn calf serum and 1% each penicillin/streptomycin, were added at 0.5 mL/well. Plates were incubated at 37° C. an additional 23 hr, and then the plates were visually inspected through a phase contrast microscope for cytopathic effect, and for toxic effect. […] The entire contents of each well were collected by scraping. Samples were frozen at −80° C., and then subsequently thawed, sonicated, and infectious virus titer was determined by standard plaque assay on Vero cell monolayers. Because the compounds were dissolved at 10 mM in 100% DMSO, equivalent dilutions of DMSO were added to additional wells as a control for effects of the diluent. Each experiment was repeated once. EC50 values were determined as above except that serial dilutions of the compound to be tested were prepared starting at 50 μM. The inhibitory values were calculated by non-linear curve-fitting in GraphPad Prism.
(§4) Inhibition of viral replication was next assessed in human foreskin fibroblasts (HFF) to determine whether NTS inhibitors could block HSV-1 and HSV-2 replication in a physiologically relevant, primary human cell type. […] Viral yields 24 hours post-infection were measured by plaque assay.

[12] = in vitro; conditions: human
Procedure: Toxicity Assays. Qualitative assessments of cytotoxicity were done visually by inspecting the cells in the primary screening assays. For the quantitative assays, cells were plated in 96-well plates at 1.0×10^4 per well. The next day the compounds were added at 0.78 to 100 μM in a final concentration of 1% (v/v) DMSO, and the cells were incubated for 24 hours under conditions identical to those employed for the viral replication inhibition assays. Mitochondrial toxicity was measured by incubating the cells with 0.25 mg/mL thiazolyl blue tetrazolium bromide (MTT, SigmaAldrich Chemical Co.), the cultures were incubated for 60 min, metabolites were solubilized in acidic isopropanol, and absorbance was read at 570 nm. Cellular lysis was measured by detecting release of intracellular proteases with the CytoTox-Glo assay (Promega) according to the manufacturer's instructions. Percent viability was determined for each compound concentration from the maximal absorbance or luminosity data, and then CC50 values were calculated by non-linear curve fitting using GraphPad Prism.
as §4

[13] = tested on: HSV-2; assay: HSV-2 replication inhibition in primary human foreskin fibroblasts; assay type: cell-based, herpes simplex virus 2; conditions: HFF cells, relative to DMSO-treated control
Procedure: as §3, §4

[14] = Neutral red cytotoxicity assay in HFFs (10 day, with plaque reduction assay); assay type: cell-based, human; conditions: human, uninfected primary human foreskin fibroblasts (HFFs), 10 day assay
Procedure: (§5) HCMV plaque reduction EC50 and toxicity assays. Low passage primary HFFs were infected with HCMV strain AD169 in the presence of serial dilutions of the compounds from 0.032 to 100 μM. Ten days later the monolayers were stained with 1% neutral red solution in PBS. After rinsing, plaques were counted using a stereomicroscope and the EC50 was interpolated from the data. Cytotoxicity was measured using a plate-based assay in which compounds were added to HFFs at 0.032 to 100 μM. At the end of the incubation period, plates were stained for 1 h with a neutral red solution in PBS. The stain was then removed, the plates rinsed in PBS and dried, and dye internalized by viable cells was determined at OD550. CC50 values were interpolated from the data.
(§6) Compounds #41, 46, 49, 55, 56, and 59 and the FDA-approved, anti-HCMV drug ganciclovir were subsequently evaluated with plaque reduction and toxicity assays in HFFs. HFFs were infected with HCMV in the presence of serial dilutions of the compounds. After 10 days the cultures were stained with neutral red and plaques were counted. Compound cytotoxicity for uninfected cells was determined in the same manner except that neutral red uptake by viable cells was measured by optical density. […] The TI values for the five NTS inhibitors of HCMV ranged from 5 for compound #46 to 17 for #55 and 59. Therefore, NTS inhibitors can suppress HCMV replication in addition to inhibiting the HSVs.

[15] = Neutral red cytotoxicity assay in uninfected HFFs (14 day, with CPE assay); assay type: cell-based, human; conditions: human, uninfected human foreskin fibroblasts (HFFs)
Procedure: (§7) Anti-HCMV CPE inhibition and cytotoxicity assays. HFFs were infected with HCMV strain AD169 in the presence of serial dilutions of the compounds from 0.0192 to 60 μM. Fourteen days later the monolayers were stained with crystal violet, and retained cell density was quantified using a multiplate autoreader (BioTek). Cytotoxicity was measured the same way, except that the cells were uninfected and neutral red internalization by viable cells was measured.
(§8) Antiviral efficacy against HCMV. The ability of select HSV inhibitors to inhibit replication of another major human herpesvirus pathogen, human cytomegalovirus (HCMV) (65) was tested. This was based on the inhibitors strong suppression of HSV-1 and HSV-2 and the prediction that other members of the herpesvirus family would be sensitive to NTS inhibitors due to their shared DNA replication mechanism. Compounds #41, 46, 49, 55, 56, and 59 and the FDA-approved anti-HCMV drug ganciclovir were evaluated with crystal violet CPE and neutral red toxicity assays in HFFs. HFFs were infected with HCMV in the presence of serial dilutions of the compounds that were most inhibitory for HSVs. After 14 days the monolayers were stained and cell density was determined by OD reading. Compound cytotoxicity for uninfected cells was determined in the same manner except that neutral red uptake by viable cells was measured. […] The TI values for the four NTS inhibitors of HCMV ranged from 4 for compound #41 to 38 for #56. Therefore, NTS inhibitors can suppress HCMV replication in addition to inhibiting the HSVs.

[16] = tested on: HCMV strain AD169; assay: HCMV plaque reduction assay in HFFs; assay type: cell-based, human cytomegalovirus; conditions: Human betaherpesvirus 5, AD169, 240 h, 10 days, read-out: EC50 against HCMV, plaque reduction assay
Procedure: as §5, §6

[17] = tested on: HCMV strain AD169; assay: Anti-HCMV CPE inhibition assay (crystal violet) in HFFs; assay type: cell-based, human cytomegalovirus; conditions: Human betaherpesvirus 5, AD169, 336 h, 14 days, read-out: EC50 against HCMV, CPE inhibition assay
Procedure: as §7, §8

T1 sequence (P03159 693-845): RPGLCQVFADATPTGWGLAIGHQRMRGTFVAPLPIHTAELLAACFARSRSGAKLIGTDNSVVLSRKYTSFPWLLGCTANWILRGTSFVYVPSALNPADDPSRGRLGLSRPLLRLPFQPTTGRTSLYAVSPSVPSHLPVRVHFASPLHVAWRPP

| Anti-HBV RNaseH [3] | Anti-Human RNaseH1 [7] | Compound | CC50 [1] | CC50 [2] | Anti-HSV-2 Log10 suppression 5 μM [4] | Anti-HSV-2 Log10 suppression 50 μM [4] | Anti-HSV-1 Log10 suppression 5 μM [6] | Anti-HSV-1 Log10 suppression 50 μM [6] | other results |
| --- | --- | --- | --- | --- | --- | --- | --- | --- | --- |
| +++ (inhibition at 10 μM) |  | O=C1Cc2ccccc2C(=O)N1O [Compound 1] | > 100 µM | > 100 µM | −0.11 log10 | 3.12 log10 | 0.28 log10 | 2.66 log10 | Vero cell toxicity Qualitative [5]: T? |
| +++ (inhibition at 10 μM) | +++ (inhibition at 10 μM) | O=c1cc2oc3cc(O)c(O)cc3c(-c3ccccc3)c-2cc1O [Compound 31] | > 100 µM | > 100 µM | 0.22 log10 | 3.56 log10 | 0.21 log10 | 3.01 log10 |  |
|  |  | Cc1cc(C2CCCCC2)n(O)c(=O)c1 [Compound 41-E, Ciclopirox ethanolamine] |  |  |  |  |  |  | Overall health of mice as shown by maintenance of body weight [8]: significantly improved the overall health; Concentrations in cornea and nervous system tissues, fold lower than plasma [9]: ~5 fold; Plasma concentration at time of uptake [9]: ~30 µM; Free plasma concentration after 5 hours, fold above the estimated EC90 against HSV-1 ([9]; 5 hours): 10 fold; Oral toxicity level in mice [10]: 1740 mg/kg |
| − (no inhibition at 60 μM) | − (no inhibition at 60 μM) | O=c1cccccc1O [Compound 53, Tropolone] |  |  | 0.45 log10 | 1.45 log10 | 0.25 log10 | 1.90 log10 | Replication inhibition HSV-1 5 μM ([11]; 5 μM): −0.03 log10; Replication inhibition HSV-1 50 μM ([11]; 50 μM): 2.13 log10; CC50 at 24 h [12]: > 100 µM; Inhibition of HSV-2 replication (in words) ([4]; primary screening): negligible inhibitors; Replication inhibition HSV-2 5 μM ([13]; 5 μM): 0.29 log10; Replication inhibition HSV-2 50 μM ([13]; 50 μM): 1.22 log10; Inhibition of HSV-1 replication (in words) ([6]; primary screening): negligible inhibitors |
|  |  | Nc1nc(O)c2ncn(COC(CO)CO)c2n1 [Ganciclovir, reference compound] |  |  |  |  |  |  | CC50 at 10 days [14]: > 100 µM; CC50 at 14 days [15]: > 300 µM; EC50 [16]: 3.2 µM; EC50 [17]: 0.33 µM |
